One assay has as its target EGFR WT kinase (Homo sapiens (Human), UniProt P00533). Nature of the assay: Wild type EGFR kinase inhibition test (z-lyte). In kind it is biochemical. Particulars: 10 μM ATP.
Assay [1] deals with H1975 cells. Nature of the assay: Cytostatic activity by MTT method, H1975 cells. The assay is classed as cell-based. To be noted: MTT; for IC50: 72 h, read-out: H1975 cells (IC50/nM); for selective inhibitory activity against the cell growth [IC50 (A431 cells)/IC50 (H1975 cells)]: ratio of IC50 values. A general note: Tetrazolium assays rely on reduction of a dye to a coloured formazan, in cell work by metabolically active cells.
Method: MTT assay used the method well known to those skilled in the art, and the reagents used in the method can be commercially obtained. […] After rinsed for one time, 1.5 ml trypsin/EDTA was added to digest the adherent cells until the cells detached, and then 3.5 ml of medium was added to terminate the trypsinization. The digested cell suspension was transferred to a 15 ml falcon tube, and spun at 1300 rpm for 3 min, the supernatant was discarded, and cells were suspended in fresh medium. […] The plates were spun at 2000 rpm for 5 min.

Another assay has as its system NIH3T3 cells. Nature of the assay: Cytotoxicity by MTT method, NIH3T3 cells.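 Further: cells grown in 96-well plates with compound for 72 h, then given MTT for a further 4 h at 37 °C under 5% CO2.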 The assay is classed as cell-based. To be noted: cytotoxicity, MTT, 72 h, read-out: NIH3T3 cells MTT assay (IC50/nM).
The subject of assay [2] is H1975 cells. Nature of the assay: ELISA screening EGFR T790M inhibitor for cell activity, H1975 cells. In kind it is cell-based. Particulars: ELISA; for Selective inhibitory activities of target on cellular level [IC50 (A431 cells)/IC50 (H1975 cells)]: ratio of IC50 values; for IC50: compound 1 h, read-out: H1975 cells (IC50/nM). Background: In an ELISA, binding on a coated surface is turned into a signal by an enzyme label.
Method: (§1) The reagents, preparation methods of the solution, as well as the procedures of cell treatments and preparation of lysate, and the test steps of ELISA in the following method were conducted according to the instructions of R&D DYC3570, R&D DYC1095E and R&D DYC1095BE.
(§2) Cell lysates: cell lysis buffer+10 μg/ml Aprotinin (Sigma), 10 μg/ml Leupeptin (Sigma). All reagents were prepared when using.
(2) The test compounds were diluted according to the method in MTT assay, and 10 μl of diluted compound or DMSO was added to the corresponding plate well, and incubated at 37° C. with 5% CO2 for 1 h. The final concentration of DMSO was 0.5%. Cell culture system merely treated with DMSO was used as cell control.
(3) 100 μl cell lysate was added after aspirating the medium, sealed and placed in a refrigerator at −80° C. overnight. Cell lysis buffer used as blank control.
The assay was operated according to the instructions of R&D DYC1095E or R&D DYC1095BE.
(§3) (5) 40 μl of cell lysis buffer and 60 μl of cell lysates were added, and incubated at 25° C. for 2 h under shaking;
(7) Detection antibody was diluted according to a predetermined ratio as stipulated in kit instructions by using IC diluent, and 100 μl of the diluted Detection Antibody was added to each well, and incubated at 25° C. for 1 h under shaking in darkness;
(9) reagent A and reagent B of TMB substrate (R & D DY999) were mixed with 1:1, and 100 μl of substrate was added to each well, and incubated at 25° C. for 20 minutes under shaking in darkness;
(11) The OD450 values and OD570 values of the cell control, blank control and compound treatment were measured respectively by using microplate reader (Thermo Multiskan K3), and the corresponding OD570 values were subtracted from OD450 values of the same wells to get the ODcell, ODblank and ODcompound treatment respectively.
2.3 Data Analysis Inhibition ratio (%)=100%×(ODcell−ODcompound treatment)(ODcell−ODblank)

For assay [3], the system named is A431 cells. Nature of the assay: ELISA cell activity, EGF-stimulated A431 cells.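 Further: Serum-starved A431 cells pretreated with compound for 1 h, then stimulated with EGF for 45 min, lysates read by ELISA (OD450 minus OD570), EGF-only wells as control.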 The assay is classed as cell-based. Particulars: ELISA, compound 1 h then EGF 45 minutes, read-out: A431 cells (IC50/nM).
Method: as §1, §2
(2) The medium of A431 cells was changed to 90 ul of DMEM FBS free medium, and incubated overnight.
(3) The test compounds were diluted according to the method in MTT assay, 10 μl of diluted compound or DMSO was added to the corresponding plate well, and incubated at 37° C. with 5% CO2 for 1 h. The final concentration of DMSO was 0.5%. 10 μl of 2 μg/L EGF was then added to each well except the cell control well, 10 μl of FBS free DMEM was added to the well, and incubated for 45 minutes; the EGF-free and compound treatment-free cells were used as cell control, and the compound treatment-free but only EGF-treated cells were used as EGF control.
(4) 100 μl cell lysate was added after aspirating the medium, sealed and placed in refrigerator at −80° C. overnight.
The assay was operated according to the instructions of R&D DYC3570E.
as §3
(7) Detection antibody was diluted according to a predetermined ratio of kit instruction by using IC dilution, and 100 μl of the diluted Detection Antibody was added to each well, and incubated at 25° C. for 1 h under shaking in darkness;
(9) reagent A and reagent B of TMB substrate (R & D DY999) were mixed at 1:1, 100 μl of substrate was added to each well, and incubated at 25° C. for 20 minutes under shaking in darkness;
(11) The OD450 values and OD570 values of the cell control, blank control and compound treatment were measured respectively by using microplate reader (Thermo Multiskan K3), and the corresponding OD570 values were subtracted from OD450 values of the same wells to get the ODEGF, ODcompound and ODcell respectively.
The test system of assay [4] is A431 cells. Nature of the assay: Cytostatic activity by MTT method, A431 cells.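 Further: viability read by MTT reduction after compound exposure, with MTT incubated for a further 4 h at 37 °C under 5% CO2 in 96-well plates.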 Particulars: read-out: A431 cells (IC50/nM).
Method: (§4) After rinsed for one time, 1.5 ml trypsin/EDTA was added to digest the adherent cells until the cells detached, and then 3.5 ml of medium was added to terminate the trypsinization. The digested cell suspension was transferred to a 15 ml falcon tube, and spun at 1300 rpm for 3 min, the supernatant was discarded, and cells were suspended in fresh medium.
(§5) The cells were added into the incubator after addition of the test compound, and incubated for 72 h, 10 μl of 5 mg/ml MTT (Sigma, M5655) solution was added to each well of the plate, and incubated the 96-well plates at 37° C. 5% CO2 for 4 h in a incubator.
(§6) The plates were spun at 2000 rpm for 5 min.

Each structure is given as a SMILES string. Like-named read-outs stand apart in the source and are kept apart here. Bounds are passed on as bounds.

Sequence of EGFR WT kinase (P00533 25-1210): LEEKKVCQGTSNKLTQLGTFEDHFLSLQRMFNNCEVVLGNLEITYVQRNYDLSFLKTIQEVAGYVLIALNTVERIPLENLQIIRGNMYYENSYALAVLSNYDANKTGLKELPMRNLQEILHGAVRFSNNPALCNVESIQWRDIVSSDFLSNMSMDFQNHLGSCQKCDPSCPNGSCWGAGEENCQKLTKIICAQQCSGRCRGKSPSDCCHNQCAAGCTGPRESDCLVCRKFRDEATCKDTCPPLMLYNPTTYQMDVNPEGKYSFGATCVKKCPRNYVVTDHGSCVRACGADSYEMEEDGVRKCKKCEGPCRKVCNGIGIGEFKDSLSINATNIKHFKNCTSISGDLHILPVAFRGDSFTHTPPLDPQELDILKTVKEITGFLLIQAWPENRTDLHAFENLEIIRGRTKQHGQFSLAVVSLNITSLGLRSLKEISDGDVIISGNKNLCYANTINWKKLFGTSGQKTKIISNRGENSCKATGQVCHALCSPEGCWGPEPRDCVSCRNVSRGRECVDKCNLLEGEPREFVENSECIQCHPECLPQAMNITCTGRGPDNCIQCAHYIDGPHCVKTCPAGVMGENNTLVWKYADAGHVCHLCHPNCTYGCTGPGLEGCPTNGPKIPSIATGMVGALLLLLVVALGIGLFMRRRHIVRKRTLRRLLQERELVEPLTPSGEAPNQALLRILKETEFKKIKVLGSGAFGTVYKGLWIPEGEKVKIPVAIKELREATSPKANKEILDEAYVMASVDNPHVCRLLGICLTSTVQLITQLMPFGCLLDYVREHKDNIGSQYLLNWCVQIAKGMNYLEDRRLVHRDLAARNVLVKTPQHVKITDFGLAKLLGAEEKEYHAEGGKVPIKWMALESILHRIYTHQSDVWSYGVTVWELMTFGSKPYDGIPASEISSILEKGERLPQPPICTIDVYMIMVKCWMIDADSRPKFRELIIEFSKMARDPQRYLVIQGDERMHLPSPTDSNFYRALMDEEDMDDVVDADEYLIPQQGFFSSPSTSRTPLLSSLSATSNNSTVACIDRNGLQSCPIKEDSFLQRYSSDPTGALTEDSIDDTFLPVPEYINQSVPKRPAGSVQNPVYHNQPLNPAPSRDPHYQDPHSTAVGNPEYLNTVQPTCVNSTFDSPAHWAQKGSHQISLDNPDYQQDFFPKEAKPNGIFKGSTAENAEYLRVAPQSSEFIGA
Method for NIH3T3 cells: as §4, §5, §6

In the case of `C=CC(=O)Nc1cc(Nc2ncc(Cl)c(-c3c(C)nn(C)c3C)n2)c(OC)cc1N(C)CCN(C)C` [Compound Z-91, N-(5-(5-chloro-4-(1,3,5-trimethyl-1H-pyrazol-4-yl)pyrimidin-2-ylamino)-2-((2-(dimethylamino)ethyl)(methyl)amino)-4-methoxyphenyl)acrylamide], the IC50 against EGFR WT kinase is 195 nM; in the assay with H1975 cells [1] (Homo sapiens, NCI-H1975), 36 nM; in the assay with NIH3T3 cells (Mus musculus, NIH3T3), > 10000 nM; in the assay with H1975 cells [2] (Homo sapiens, NCI-H1975), 90 nM; with A431 cells [3] (Homo sapiens, A-431), 3280 nM; in the assay with A431 cells [4] (Homo sapiens, A-431, 72 h), 3610 nM. In addition, in the assay on H1975 cells [1], the “selective inhibitory activity against the cell growth [IC50 (A431 cells)/IC50 (H1975 cells)]” value (“selective inhibitory activity” below) was determined as 100.3. Moreover, in the assay on H1975 cells [2], the “Selective inhibitory activities of target on cellular level [IC50 (A431 cells)/IC50 (H1975 cells)]” value (shortened to “Selective inhibitory activities”) was 36.4.
Regarding `C=CC(=O)Nc1cc(Nc2nccc(-c3cnc4c(ccn4C)c3)n2)c(OC)cc1OCCN(C)C` [Compound Z-117], the IC50 against EGFR WT kinase was 8 nM; in the assay on H1975 cells [1] it was 19 nM; in the assay with NIH3T3 cells, > 10000 nM; with H1975 cells [2], 18 nM; in the assay on A431 cells [3] it was 164 nM; in the assay with A431 cells [4] (MTT, 72 h), 1300 nM. The “selective inhibitory activity” value in the assay on H1975 cells [1] was found to be 68.5. Also, the “Selective inhibitory activities” value in the assay with H1975 cells [2] is on record as 9.1.
Consider `C=CC(=O)Nc1cc(Nc2ncc(Cl)c(-c3cnn(C)c3)n2)c(OC)cc1N1CCN(C)CC1` [Compound Z-100, N-(5-(5-chloro-4-(1-methyl-1H-pyrazol-4-yl)pyrimidin-2-ylamino)-4-methoxy-2-(4-methylpiperazin-1-yl)phenyl)acrylamide], for which the IC50 at EGFR WT kinase amounted to 297 nM; in the assay on H1975 cells [1] (Homo sapiens, NCI-H1975), 24 nM; with NIH3T3 cells (Mus musculus, NIH3T3), 3880 nM; in the assay with H1975 cells [2] (Homo sapiens, NCI-H1975), 24 nM; in the assay on A431 cells [3] (Homo sapiens, A-431) it was 8430 nM; with A431 cells [4] (Homo sapiens, A-431, 72 h) it was 1230 nM. Besides, in the assay with H1975 cells [1], the “selective inhibitory activity” value came out at 51.1. The “Selective inhibitory activities” value in the assay with H1975 cells [2] came to 351.2.
For the compound `C=CC(=O)Nc1cc(Nc2ncc(Cl)c(-c3cn(C)nc3C)n2)c(OC)cc1N(C)CCN(C)C` [Compound Z-94, N-(5-(5-chloro-4-(1,3-dimethyl-1H-pyrazol-4-yl)pyrimidin-2-ylamino)-2-((2-(dimethylamino)ethyl)(methyl)amino)-4-methoxyphenyl)acrylamide], the IC50 against EGFR WT kinase is 20 nM; with H1975 cells [1] (Homo sapiens, NCI-H1975), 8 nM; in the assay on NIH3T3 cells (Mus musculus, NIH3T3), > 10000 nM; in the assay on H1975 cells [2] (Homo sapiens, NCI-H1975), 16 nM; with A431 cells [3] (Homo sapiens, A-431), 372 nM; in the assay with A431 cells [4] (Homo sapiens, A-431, 72 h), 645 nM. In addition, the “selective inhibitory activity” value in the assay on H1975 cells [1] is reported as 80.6. Further, the “Selective inhibitory activities” value with H1975 cells [2] was determined as 23.3.
For the compound `C=CC(=O)Nc1cc(Nc2ncc(Cl)c(-c3cnc4c(ccn4C(C)C)c3)n2)c(OC)cc1N(C)CCN(C)C` [Compound Z-125], the IC50 amounted to 14 nM at EGFR WT kinase; 13 nM in the assay on H1975 cells [1]; 4660 nM in the assay on NIH3T3 cells; 47 nM in the assay with H1975 cells [2]; 291 nM in the assay on A431 cells [3]; 1320 nM with A431 cells [4] (MTT, 72 h). In addition, the “selective inhibitory activity” value in the assay with H1975 cells [1] was 101.2. For the same compound, the “Selective inhibitory activities” value in the assay on H1975 cells [2] is 6.2.
`C=CC(=O)Nc1cc(Nc2nccc(-c3cnc4c(ccn4C)c3)n2)c(OC)cc1N1CC(N(C)C)C1` [Compound Z-27]: the IC50 on EGFR WT kinase was determined as 19 nM; with H1975 cells [1] it was 49 nM; in the assay with NIH3T3 cells, 7960 nM; in the assay on H1975 cells [2], 44 nM; in the assay on A431 cells [3] it was 955 nM; in the assay on A431 cells [4] (MTT, 72 h), 2480 nM. The “selective inhibitory activity” value in the assay on H1975 cells [1] turned out to be 50.1. Besides, in the assay with H1975 cells [2], the “Selective inhibitory activities” value stood at 21.7.
Turning to `C=CC(=O)Nc1cc(Nc2ncc(Cl)c(-c3cn(C)nc3C)n2)c(OC)cc1N1CCC(N(C)C)CC1` [Compound Z-95, N-(5-(5-chloro-4-(1,3-dimethyl-1H-pyrazol-4-yl)pyrimidin-2-ylamino)-2-(4-(dimethylamino)piperidin-1-yl)-4-methoxyphenyl)acrylamide], the IC50 against EGFR WT kinase was 328 nM; with H1975 cells [1] (Homo sapiens, NCI-H1975) it was 45 nM; in the assay on NIH3T3 cells (Mus musculus, NIH3T3) it was > 10000 nM; in the assay with H1975 cells [2] (Homo sapiens, NCI-H1975) it was 41 nM; in the assay with A431 cells [3] (Homo sapiens, A-431), 4960 nM; in the assay with A431 cells [4] (Homo sapiens, A-431, 72 h) it was 5450 nM. Also, the “selective inhibitory activity” value in the assay on H1975 cells [1] is listed as 121.1. The “Selective inhibitory activities” value in the assay on H1975 cells [2] is 121.
On to `C=CC(=O)Nc1cc(Nc2nccc(-c3cnc4c(ccn4C)c3)n2)c(OC)cc1N(C)CCN(C)C` [Compound Z-16, N-(2-((2-(dimethylamino)ethyl)(methyl)amino)-4-methoxy-5-((4-(1-methyl-1H-pyrrolo[2,3-b]pyridin-5-yl)pyrimidin-2-yl)amino)phenyl)acrylamide], for which the IC50 against EGFR WT kinase is 4 nM; in the assay on H1975 cells [1] (Homo sapiens, NCI-H1975), 9 nM; in the assay with NIH3T3 cells (Mus musculus, NIH3T3), > 10000 nM; in the assay on H1975 cells [2] (Homo sapiens, NCI-H1975) it was 10 nM; in the assay with A431 cells [3] (Homo sapiens, A-431) it was 153 nM; in the assay with A431 cells [4] (Homo sapiens, A-431, 72 h) it was 871 nM. In the assay on H1975 cells [1], the “selective inhibitory activity” value was 97. Further, the “Selective inhibitory activities” value with H1975 cells [2] is 15.3.
Take `C=CC(=O)Nc1cc(Nc2nccc(-c3cnc4c(ccn4C)c3)n2)c(OC)cc1N(C)CCN(C)C(C)C` [Compound Z-115]: the IC50 against EGFR WT kinase was 22 nM; in the assay with H1975 cells [1], 38 nM; with NIH3T3 cells it was > 10000 nM; in the assay with H1975 cells [2], 90 nM; in the assay on A431 cells [3], 469 nM; in the assay on A431 cells [4] (MTT, 72 h), 2500 nM. In addition, the “selective inhibitory activity” value in the assay with H1975 cells [1] amounted to 66. The “Selective inhibitory activities” value with H1975 cells [2] was determined as 5.2.
For the compound `C=CC(=O)Nc1cc(Nc2ncc(Cl)c(-c3cnc4c(cnn4C)c3)n2)c(OC)cc1N(C)CCN(C)C` [Compound Z-39], the IC50 stood at 33 nM on EGFR WT kinase; 16 nM with H1975 cells [1]; 8890 nM in the assay with NIH3T3 cells; 41 nM with H1975 cells [2]; 660 nM in the assay on A431 cells [3]; 918 nM with A431 cells [4] (MTT, 72 h). For the same compound, the “selective inhibitory activity” value in the assay with H1975 cells [1] is reported as 57.4. Besides, the “Selective inhibitory activities” value with H1975 cells [2] is on record as 16.1.
As for `C=CC(=O)Nc1cc(Nc2ncc(Cl)c(-c3cnc4c(ccn4C4CC4)c3)n2)c(OC)cc1N(C)CCN(C)C` [Compound Z-126], the IC50 came to 7 nM at EGFR WT kinase; 10 nM with H1975 cells [1]; 4910 nM with NIH3T3 cells; 20 nM in the assay with H1975 cells [2]; 229 nM with A431 cells [3]; 495 nM in the assay with A431 cells [4] (MTT, 72 h). The “selective inhibitory activity” value with H1975 cells [1] is on record as 49.5. In addition, in the assay on H1975 cells [2], the “Selective inhibitory activities” value was 11.5.
`C=CC(=O)Nc1cc(Nc2ncc(Cl)c(-c3ccn(C)c3)n2)c(OC)cc1N(C)CCN(C)C` [Compound Z-99, N-(5-(5-chloro-4-(1-methyl-1H-pyrrol-3-yl)pyrimidin-2-ylamino)-2-((2-(dimethylamino)ethyl)(methyl)amino)-4-methoxyphenyl)acrylamide]: the IC50 on EGFR WT kinase is 38 nM; with H1975 cells [1] (Homo sapiens, NCI-H1975) it was 40 nM; with NIH3T3 cells (Mus musculus, NIH3T3), 5990 nM; in the assay on H1975 cells [2] (Homo sapiens, NCI-H1975), 57 nM; in the assay with A431 cells [3] (Homo sapiens, A-431), 663 nM; in the assay with A431 cells [4] (Homo sapiens, A-431, 72 h) it was 1040 nM. Also, the “selective inhibitory activity” value in the assay on H1975 cells [1] is listed as 26. In addition, the “Selective inhibitory activities” value with H1975 cells [2] is given as 11.6.

(Values after patent US10435400B2, “2,4-disubstituted phenylene-1,5-diamine derivatives and applications thereof, and pharmaceutical compositions and pharmaceutically acceptable compositions prepared therefrom” (SHANGHAI HAIYAN PHARMACEUTICAL TECHNOLOGY CO., LTD., priority 2014, dated 2019).)
